Experimental findings from PMC7587441, “Plasmodium falciparum Apicomplexan-Specific Glucosamine-6-Phosphate N-Acetyltransferase Is Key for Amino Sugar Metabolism and Asexual Blood Stage Development” (mBio, 2020) are described below.

The target of the assay is T1, CpGNA1 (Cryptosporidium parvum, UniProt Q5CPU3).
T1 construct: gene SSAT; E. coli BL21 Star; GST cut off with PreScission protease, GPLGS left at N terminus; dimer (sugar site formed by both monomers)
Nature of the assay: X-ray crystal structure, […] Å. Format: binding.

T1 sequence (Q5CPU3 whole entry): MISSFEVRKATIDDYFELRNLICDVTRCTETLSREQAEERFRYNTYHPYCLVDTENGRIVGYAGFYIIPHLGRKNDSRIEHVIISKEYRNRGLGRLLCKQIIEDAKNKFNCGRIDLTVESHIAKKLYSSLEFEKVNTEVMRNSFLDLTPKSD

For `O=P(O)(O)OC[C@H]1OC(O)[C@H](O)[C@@H](O)[C@@H]1O` (some centres unmarked) [Glc6P], the “X-ray crystal structure, 1.95 Å” value (crystal soaked with 50 mM Glc6P and 50 mM acetyl-CoA, pseudosubstrate in GlcN6P site) was “dimeric structure of CpGNA1 in complex with acetyl-CoA and glucose-6-phosphate (Glc6P)”.

Regarding `CC(=O)SCCNC(=O)CCNC(=O)[C@H](O)C(C)(C)COP(=O)(O)OP(=O)(O)OC[C@H]1O[C@@H](n2cnc3c(N)ncnc32)[C@H](O)[C@@H]1OP(=O)(O)O` [acetyl-CoA], the “X-ray crystal structure, 1.95 Å” value (cocrystallized with 10 mM acetyl-CoA, soaked with 50 mM acetyl-CoA and 50 mM Glc6P, acetyl-CoA site) is “dimeric structure of CpGNA1 in complex with acetyl-CoA and glucose-6-phosphate (Glc6P)”.
